Tests used:
clinical = conditions: human, in vivo
[1] = Dissociation constant, pKa of the compound; type: physicochemical
Plasma = conditions: human
Description: Fraction unbound in human plasma

`O=C(O)c1cc(=O)c2c(OCC(O)COc3cccc4oc(C(=O)O)cc(=O)c34)cccc2o1` [CROMOLYN] showed a Vd (clinical) of 0.32 L/kg, a pKa [1] of 1.9 and a fu (Plasma) of 0.
With `CCn1cc(C(=O)O)c(=O)c2cc(F)c(N3CCNCC3)nc21` [ENOXACIN] the Vd (clinical) was 1.96 L/kg, the pKa [1] was 6.3 and the fu (Plasma) was 0.485.
`COC(=O)CCc1ccc(OCC(O)CNC(C)C)cc1` (stereo not drawn) [ESMOLOL] gave a Vd (clinical) of 1.9 L/kg, a pKa [1] of […] and a fu (Plasma) of 0.45.
`Cc1ccc(S(=O)(=O)NC(=O)NN2CC3CCCC3C2)cc1` (stereo not drawn) [GLICLAZIDE] gave a Vd (clinical) of 0.36 L/kg, a pKa [1] of 5.98 and a fu (Plasma) of 0.09.
With `COc1ccc2c(c1)C(=O)N(CCc1ccc(S(=O)(=O)NC(=O)NC3CCCCC3)cc1)C(=O)C2(C)C` [GLIQUIDONE] the Vd (clinical) was 0.16 L/kg, the pKa [1] was 5 and the fu (Plasma) was 0.01.
`CCn1cc(C(=O)O)c(=O)c2cc(F)c(N3CCNC(C)C3)c(F)c21` (stereo not drawn) [LOMEFLOXACIN] showed a Vd (clinical) of 2.3 L/kg, a pKa [1] of 5.99 and a fu (Plasma) of 0.89.
Work on `Nc1cc(N2CCCCC2)nc(N)[n+]1[O-]` [MINOXIDIL] yielded a Vd (clinical) of 3 L/kg, a pKa [1] of 4.6 and a fu (Plasma) of 1.
`CN1CCOC(c2ccccc2)c2ccccc2C1` (stereo not drawn) [NEFOPAM] showed a Vd (clinical) of 7.23 L/kg, a pKa [1] of 9.3 and a fu (Plasma) of 0.27.
Work on `CCn1cc(C(=O)O)c(=O)c2cc(F)c(N3CCNCC3)cc21` [NORFLOXACIN] yielded a Vd (clinical) of 2.8 L/kg, a pKa [1] of 6.3 and a fu (Plasma) of 0.85.
`CCCC(C)C1(CC)C(=O)NC(=O)NC1=O` (stereo not drawn) [PENTOBARBITAL] showed a Vd (clinical) of 1 L/kg, a pKa [1] of 8.1 and a fu (Plasma) of 0.45.
Work on `CCCOC(C(=O)OC1CCN(C)CC1)(c1ccccc1)c1ccccc1` [PROPIVERINE] yielded a Vd (clinical) of 1.9 L/kg, a pKa [1] of 6.65 and a fu (Plasma) of 0.075.
